Source: patent publication US11932599B2, “Ferroptosis inducing compound, compositions comprising the same, and methods of inducing ferroptosis” (UNIVERSITY OF MASSACHUSETTS, priority 2021, dated 2024)

Assays:
HT-1080 cells [1] = assay: Cell viability assay (Alamar Blue), cytotoxicity in HT-1080 cells; format: cell-based, human; settings: Homo sapiens
Description: (§1) Cell lines and media. In the following example, HT-1080 (Human fibrosarcoma harboring NrasQ61K) cells (obtained from ATCC) were grown in DMEM high-glucose media with 1% non-essential amino acids (Life Technologies) and 10% FBS. 143B cells were grown in DMEM high-glucose media with 1% glutamine and 10% FBS. Calu-1 cells were grown in McCoy's 5A media (Life Technologies) supplemented with 10% FBS. All the cell lines were grown at 37° C. under 5% CO2. Cell lines were not tested for mycoplasma. In addition, the panel of four lung cancer (NCI-H23; SK-Mes-1; Calu6 and A549) were purchased from ATCC. They were cultured according to the ATCC protocol of each cell line. The non-malignant breast epithelial cells (MCF10A) were maintained in DMEM/F12 medium supplemented with 5% horse serum, epidermal growth factor (20 ng/ml), insulin (10 μg/ml), hydrocortisone (0.5 mg/ml), cholera toxin (100 ng/ml), and penicillin/streptomycin.
(§2) Cell viability assay. 9,000 cells per 100 μl were seeded in each well in 96-well plates. Lethal compounds were dissolved in DMSO. In the mother plates, DMSO stock of each compound was further diluted with media to create 20 μM or 10 μm as highest concentrations, respectively and a twofold, 9-point dilution series was prepared. Cells were seeded for 24 h and media were replaced by the mother plate drug-dilution media. When ferroptosis inhibitors (for example, 500 nM Ferrostatin-1, 100 μM α-tocopherol, 152 μM deferoxamine) were used in cotreatments with lethal inducers, they were supplemented to cell culture when the lethal compounds were added, and the cells were then incubated for 48 h. When other cell-death-modulating compounds (100 nM sodium selenite) were used in cotreatments, they were supplemented to cell culture for 24 h before lethal compounds were added to cell culture, after which cells were further incubated for 48 h at 37° C. under 5% CO2. On the day of the viability measurement, we added 25 μl per well of 50% Alamar Blue diluted in media (Life Technologies) and further incubated the cells at 37° C. for 6 h. Fluorescence intensity (excitation/emission: 540/590) was measured with a Victor 3 plate reader (PerkinElmer), and the normalized viability was calculated as VL=(IL−I0)/(IV−I0), where VL is the normalized viability, I0 is the raw fluorescence intensities from the wells containing media, IV is the cells treated with a vehicle (negative control), and IL is the cells with the lethal compound (L), respectively. The viability was typically measured in at least biological duplicate. A representative dose-response curve, the mean and standard error of normalized viability from one replicate were plotted.
Statistical analysis and data visualization. Dose-response curve plotting and EC50 computation were performed with Prism 6.0c (GraphPad Software).
Various compounds were selected for analysis of their cytotoxicity in HT-1080 cells according to the procedure described above.

HT-1080 cells [2] = assay: Cell viability assay in HT-1080 cells, cotreatment with cell-death inhibitors; format: cell-based, human; settings: HT-1080, 48 h; for EC50: Homo sapiens, read-out: EC50 (μM) of TKD1079 + inhbitor
Beas-2B epithelial cells = assay: Cell viability assay, cytotoxicity in Beas-2B cells; format: cell-based; settings: 48 hours
Description: as §2, with “When other cell-death-modulating compounds (100 nM sodium selenite) were used in cotreatments, they were supplemented to cell culture for 24 h before lethal compounds were added to cell culture, after which cells were further incubated for 48 h at 37° C. under 5% CO2. On the day of the viability measurement, we added 25 μl per well of 50% Alamar Blue diluted in media (Life Technologies) and further incubated the cells at 37° C. for 6 h.” left out, “A representative dose-response curve, the mean and standard error of normalized viability from one replicate were plotted.” left out
(§3) In addition, the compound TKD1079 was also analyzed for cytotoxicity in four different lung cancer cell lines according to the procedure described above. […]

NCI-H23 cells = assay: Cell viability assay, cytotoxicity in NCI-H23 cells; format: cell-based; settings: 48 hours
Description: as §1
Cell viability assay. 9,000 cells per 100 μl were seeded in each well in 96-well plates. Lethal compounds were dissolved in DMSO. In the mother plates, DMSO stock of each compound was further diluted with media to create 20 μM or 10 μm as highest concentrations, respectively and a twofold, 9-point dilution series was prepared. […] Fluorescence intensity (excitation/emission: 540/590) was measured with a Victor 3 plate reader (PerkinElmer), and the normalized viability was calculated as VL=(IL−I0)/(IV−I0), where VL is the normalized viability, I0 is the raw fluorescence intensities from the wells containing media, IV is the cells treated with a vehicle (negative control), and IL is the cells with the lethal compound (L), respectively. The viability was typically measured in at least biological duplicate. […]
In addition, the compound TKD1079 was also analyzed for cytotoxicity in four different lung cancer cell lines according to the procedure described above. […] Cytotoxicity was also determined against MCF10A non-malignant breast epithelial cell, NCI-H1299 human non-small cell lung carcinoma cell line, and Beas-2B epithelial cells isolated from normal human bronchial epithelium.

HT-1080 cells [3] = assay: Analysis of ROS generation: lipid ROS by C11-BODIPY flow cytometry; format: cell-based, human; settings: C11-BODIPY (2 μM), 4 hours
Description: Analysis of ROS Generation. 200,000 HT-1080 cells were seeded in six-well plates at 37° C. for 17 h. Cells were treated with TKD1079 compound, trypsinized, pelleted, and washed once with PBS. For lipophilic or aqueous ROS detection, cells were re-suspended in Hanks' Balanced Salt Solution (HBSS; Life Technologies) containing test compounds as well as C11-BODIPY(581/591) (2 μM) (Life Technologies), and incubated for 10 min at 37° C. Cells were then pelleted, re-suspended in 250 μL HBSS in a BD Falcon tube, and analyzed using a BD Accuri C6 flow cytometer (BD Biosciences). Both dyes were measured in the FL1 channel.

[4] = system: MCF10A non-malignant breast epithelial cell; assay: Cell viability assay, cytotoxicity in MCF10A cells; format: cell-based; settings: 48 hours
Description: as §1, with “The non-malignant breast epithelial cells (MCF10A) were maintained in DMEM/F12 medium supplemented with 5% horse serum, epidermal growth factor (20 ng/ml), insulin (10 μg/ml), hydrocortisone (0.5 mg/ml), cholera toxin (100 ng/ml), and penicillin/streptomycin.” left out
(§4) Cell viability assay. […] Fluorescence intensity (excitation/emission: 540/590) was measured with a Victor 3 plate reader (PerkinElmer), and the normalized viability was calculated as VL=(IL−I0)/(IV−I0), where VL is the normalized viability, I0 is the raw fluorescence intensities from the wells containing media, IV is the cells treated with a vehicle (negative control), and IL is the cells with the lethal compound (L), respectively. The viability was typically measured in at least biological duplicate. […]
as §3

[5] = system: four lung cancer cell lines (NCI-H23, Calu6, A549, SK-Mes-1); assay: Cell viability of four lung cancer cell lines cotreated with ferrostatin-1; format: cell-based; settings: ferrostatin-1 500 nM, 48 h
Description: as §1, with “The non-malignant breast epithelial cells (MCF10A) were maintained in DMEM/F12 medium supplemented with 5% horse serum, epidermal growth factor (20 ng/ml), insulin (10 μg/ml), hydrocortisone (0.5 mg/ml), cholera toxin (100 ng/ml), and penicillin/streptomycin.” left out
as §4

[6] = HT-1080, HT-1080 cells, compound alone, read-out: EC 50

With `C#CCON=C1c2cc(S(=O)(=O)NC3CCCCC3)ccc2-c2ccc(S(=O)(=O)NC3CCCCC3)cc21` [TKD1020, N^2,N^7-dicyclohexyl-9-((prop-2-yn-1-yloxy)imino)-9H-fluorene-2,7-disulfonamide] the EC50 (HT-1080 cells [1]; [6]) was 10.8 µM.

In the case of `O=S(=O)(NC1CC2CCC1C2)c1ccc2c(c1)C(=NO)c1cc(S(=O)(=O)NC3CC4CCC3C4)ccc1-2` (stereo not drawn) [TKD1079, N^2,N^7-di(bicyclo[2.2.1]heptan-2-yl)-9-(hydroxyimino)-9H-fluorene-2,7-disulfonamide], the EC50 (HT-1080 cells [1]; HT-1080, 48 h, HT-1080 cells, 48 hours, no inhibitor, read-out: EC50 (μM) of TKD1079) is reported as 0.0797 µM, the EC50 (HT-1080 cells [1]; [6]) is reported as 0.079 µM and the “Slectivity in fold [EC50 (TKD1079 + inhibitor)/ EC50 inhbitor]” value (HT-1080 cells [2]; DFOM (152 μM)) is reported as 34.2 fold. For the same compound, the “Slectivity in fold [EC50 (TDK1079 + inhibitor)/ EC50 inhbitor]” value (HT-1080 cells [2]; Ebselen (5 μM)) was 5.8 fold, the “Slectivity in fold [EC50 (TKD1079 + inhibitor)/ EC50 inhbitor]” value (HT-1080 cells [2]; Fer 1 (500 nM)) was 68.8 fold and the “Slectivity in fold [EC50 (TDK1079 + inhibitor)/ EC50 inhbitor]” value (HT-1080 cells [2]; Selenite (100 nM)) was 9.5 fold. For the same compound, the “Slectivity in fold [EC50 (TDK1079 + inhibitor)/ EC50 inhbitor]” value (HT-1080 cells [2]; TOFA (10 μM)) was 148.7 fold, the “Slectivity in fold [EC50 (TDK1079 + inhibitor)/ EC50 inhbitor]” value (HT-1080 cells [2]; Trolox (100 μM)) was 11.6 fold and the “Slectivity in fold [EC50 (TKD1079 + inhibitor)/ EC50 inhbitor]” value (HT-1080 cells [2]; ZVAD 45 μM) was 0.6 fold. The “blocking of the compound's lethality by the apoptosis inhibitor pathway (ZVAD)” value (HT-1080 cells [2]; ZVAD 45 μM) was “did not block”, the “Slectivity in fold [EC50 (TKD1079 + inhibitor)/ EC50 inhbitor]” value (HT-1080 cells [2]; aToc (100 μM)) was 13.5 fold and the EC50 (HT-1080 cells [2]; cotreated with DFOM (152 μM)) was 2.73 µM. For the same compound, the EC50 (HT-1080 cells [2]; cotreated with Ebselen (5 μM)) was 0.459 µM, the EC50 (HT-1080 cells [2]; cotreated with Fer 1 (500 nM)) was 5.48 µM and the EC50 (HT-1080 cells [2]; cotreated with Selenite (100 nM)) was 0.758 µM. It also gave an EC50 (HT-1080 cells [2]; cotreated with TOFA (10 μM)) of 11.8 µM, an EC50 (HT-1080 cells [2]; cotreated with Trolox (100 μM)) of 0.924 µM and an EC50 (HT-1080 cells [2]; cotreated with ZVAD (45 μM)) of 0.051 µM. The EC50 (HT-1080 cells [2]; cotreated with aToc (100 μM)) was 1.08 µM, the “cytotoxicity in normal human lung Beas-2B cells” value (Beas-2B epithelial cells) was “without harming” and the “ferroptosis induction in NCI-H23 using ferroptosis inhibitors” value (NCI-H23 cells; NCI-H23, DFOM (152 μM) and Fer-1 (0.5 μM)) was “induces ferroptosis”. For the same compound, the “cytotoxicity (cell viability) in NCI-H23 cells” value (NCI-H23 cells) was “highly potent”, the “lipid ROS generation during cell death” value (HT-1080 cells [3]) was “increased” and the “cytotoxicity in breast MCF10A cells” value [4] was “without harming”. For the same compound, the “cytotoxicity in the presence of Fer-1” value [5] was “blocked”.

`N#CC1c2cc(S(=O)(=O)NC3CCCCC3)ccc2-c2ccc(S(=O)(=O)NC3CCCCC3)cc21` [MH1013, 9-cyano-N^2,N^7-dicyclohexyl-9H-fluorene-2,7-disulfonamide] was tested, and the EC50 (HT-1080 cells [1]; [6]) was 13.4 µM.

`O=S(=O)(NC1C2CC3CC(C2)CC1C3)c1ccc2c(c1)C(=NO)c1cc(S(=O)(=O)NC3C4CC5CC(C4)CC3C5)ccc1-2` (stereo not drawn) [TKD2043, N^2,N^7-di(adamantan-2-yl)-9-(hydroxyimino)-9H-fluorene-2,7-disulfonamide] was tested, and the “cytotoxicity (cell viability) in NCI-H23 cells” value (NCI-H23 cells) was “significantly more potent than TKD1079 and FIN56”.

With `CC(C)CNS(=O)(=O)c1ccc2c(c1)C(=NO)c1cc(S(=O)(=O)NCC(C)C)ccc1-2` [TKD10416, 9-(hydroxyimino)-N^2,N^7-diisobutyl-9H-fluorene-2,7-disulfonamide] the EC50 (HT-1080 cells [1]; [6]) was 4.35 µM.

Compound `O=S(=O)(NCCF)c1ccc2c(c1)C(=NO)c1cc(S(=O)(=O)NCCF)ccc1-2` [TKD1027, N^2,N^7-bis(2-fluoroethyl)-9-(hydroxyimino)-9H-fluorene-2,7-disulfonamide] has an EC50 (HT-1080 cells [1]; [6]) of over 20 µM.
